According to article PMC9607644, “Glycoconjugation of Quinoline Derivatives Using the C-6 Position in Sugars as a Strategy for Improving the Selectivity and Cytotoxicity of Functionalized Compounds” (Molecules, 2022):

Tests used:
ctDNA = test: Intercalation study, UV-Vis absorption titration with ctDNA; assay type: binding, calf; conditions: 50 µM glycoconjugate, ctDNA 3 to 300 µM, Tris-HCl pH 7.5, 2 h 37 °C
Procedure: Due to the steric and electron features, quinoline-based compounds are well-known DNA intercalating agents. Therefore, the antiproliferative action of quinoline-related compounds can be related among others to intercalating between two adjacent base pairs of duplex DNA and inhibiting nucleic acid synthesis. […] The binding of the A-2 and E-2 to ctDNA has been characterized through absorption titration, which is an effective technique for DNA intercalation studies. The experiments were carried out for a constant concentration of glycoconjugates with increasing concentrations of ctDNA.
For the DNA binding studies, all experiments were carried out in molecular biology grade Tris-HCl buffer at pH 7.5 (EURx, Poland). The purity of the calf thymus DNA (ctDNA) (Sigma-Aldrich, St. Louis, MO, USA) was determined by measuring the ratio of UV absorbance at 260 and 280 nm. Here, the ratio was in the range of 1.8–1.9, indicating the DNA was sufficiently free from protein. The concentration of ctDNA was determined from the absorbance at 260 nm and using a molar absorption coefficient ε = 6600 M^−1 cm^−1 [68]. […] The samples were incubated for 2 h at 37 °C with gently shaking and the absorption spectra were measured using a UV–Vis-NIR spectrophotometer JASCO V-570 (Tokyo, Japan) in the range of 200–400 nm.

MCF-7 cells [1] = test: Clonogenic assay, MCF-7; assay type: cell-based, human; conditions: IC50 concentration 72 h, then 10 days in fresh medium
Procedure: (§1) MCF-7 and HCT-116 cells were treated with type A glycoconjugates and their ability to proliferate was observed. […] The formed colonies were stained with crystal violet (Figure 5).
(§2) To determine the number of colonies forming by cells after exposure to the test compounds, a clonogenic assay was performed as reported in the literature. The cells were seeded into 6-well plates at a density of 1 × 10^5 (HCT-116) or 2 × 10^5 (MCF-7, NHDF-Neo) per well (3 mL) and allowed to attach for 24 h under standard conditions with 5% CO2 at 37 °C. The following day, the medium was removed and cells were treated with solutions of test compounds in fresh medium at a dose equal to their IC50 values. Control cells were grown with fresh medium supplemented with 0.5% DMSO. After 72 h of incubation, the cells were collected by trypsinization and then reseeded into new 6-well plates at a density of 1000 cells/well/3 mL. The plates with cells were incubated for 10 days under standard conditions with 5% CO2 at 37 °C. After this time, the medium was removed and the cells were washed with PBS, fixed with ice-cold ethanol (-20 °C) for 3 min, and washed again with PBS. Finally, cells were stained with crystal violet (0.01% in H2O; Sigma-Aldrich, Taufkirchen, Germany) for 20 min. The plates were then washed with H2O and allowed to air-dry.

HCT-116 cells [2] = test: Clonogenic assay, HCT-116; assay type: cell-based, human; conditions: IC50 concentration 72 h, then 10 days in fresh medium
Procedure: as §1, §2

NHDF-Neo cells = test: Cell cycle analysis by flow cytometry, NHDF-Neo; assay type: cell-based, human; conditions: IC50 dose, 24 h
From the text: After determining the type of cell death caused by the test compounds, the flow cytometry technique was used to study their influence on potential changes in the course of the cell cycle of the HCT-116, MCF-7, and NHDF-Neo lines. The cell cycle is the sequence of growth and division of cells, both normal and cancerous. This process begins from the resting phase (G0) through the active growth phases (G1, S, G2), leading to mitosis (M) in which the cell’s nucleus divides. […] After this time, cells were harvested and treated with a buffer to lysate the cells and isolate the cell nuclei. Propidium iodide was used to assess the amount of DNA in particular phases of the cell cycle. Histograms of DNA content in cells are presented in the Supplementary Materials (Figure S74).
The cell cycle and the type of cell death induced by the test compounds were measured by using flow cytometry according to the manufacturer’s protocol. The cells were seeded into 6-well plates at a density of 3 × 10^5 (HCT-116) or 4 × 10^5 (MCF-7, NHDF-Neo) per well (3 mL) and allowed to attach for 24 h under standard conditions with 5% CO2 at 37 °C. The following day, the medium was removed and cells were treated with solutions of test compounds in fresh medium at a dose equal to their IC50 values. Control cells were grown with fresh medium supplemented with 0.5% DMSO. After 24 h of incubation, the cells were collected by trypsinization. Then, samples were centrifuged (3 min, 2000 rpm, RT) and washed with PBS, after which the cells were centrifuged again (3 min, 2000 rpm, RT) and the supernatant was carefully removed. The resulting precipitate contained cells, which were used for flow cytometry experiments.
For cell cycle analysis, the cells were suspended in 300 μL of hypotonic buffer (consisting of: sodium citrate dihydrate 1 g/L, propidium iodide (PI) 1 mg/mL, RNAse A 10 mg/mL (EURx, Gdańsk, Poland), Triton X-100 1:9), mixed gently and incubated in the dark at room temperature for 20–30 min. […]

MCF-7 cells [3] = test: Wound healing assay, MCF-7; assay type: cell-based, human; conditions: IC50 concentration, observed for 72 h
Procedure: (§3) This experiment consisted in making a “wound” in a confluent monolayer of HCT-116 and MCF-7 cells, which were next treated with the test compounds at their IC50 concentrations. […] In the control, cell migration from the edges of the wound is visible, gradually filling the gap. After 72 h, the wounds are almost completely covered with cells. In the same way, cell migration is observed in healthy NHDF cells.
(§4) To analyze the migration properties of cells exposed to test compounds, a wound-healing assay was performed as reported in the literature. The cells were seeded into 6-well plates at a density of 3 × 10^5 (HCT-116) or 4 × 10^5 (MCF-7, NHDF-Neo) per well (3 mL) and allowed to attach for 24 h under standard conditions with 5% CO2 at 37 °C. After forming a confluent monolayer, a linear scratch in each sample with a 200 µL pipette tip was made and the first photo at time zero was taken. The cells were washed with PBS and then treated with solutions of test compounds in a fresh medium at a dose equal to their IC50 values. Control cells were grown with fresh medium supplemented with 0.5% DMSO. The cells were incubated and monitored for 72 h under standard conditions with 5% CO2 at 37 °C. Cell monitoring and photos were taken using Live Cell Movie Analyzer, JuLI™ Br & FL (NanoEnTek Inc., Seoul, Korea).

HCT-116 cells [4] = test: Wound healing assay, HCT-116; assay type: cell-based, human; conditions: IC50 concentration, observed for 72 h
Procedure: as §3, §4

SMILES	binding to ctDNA, change of UV-Vis absorption spectrum (ctDNA)	clonogenic potential, MCF-7 (MCF-7 cells [1])	clonogenic potential, HCT-116 (HCT-116 cells [2])	cell cycle phase distribution in words, NHDF-Neo (NHDF-Neo cells)	cell migration, MCF-7 (MCF-7 cells [3])	cell migration, HCT-116 (HCT-116 cells [4])
OC[C@H]1O[C@@H](n2cc(COc3cccc4cccnc34)nn2)[C@H](O)[C@@H](O)[C@@H]1O [Compound E-2, reference compound]	hypochromic and bathochromic effects	–	–	–	–	–
OC1O[C@H](Cn2cc(COc3cccc4cccnc34)nn2)[C@@H](O)[C@H](O)[C@H]1O (stereo partly drawn) [Compound A-2]	hypochromic and bathochromic effects	able to decrease the clonogenic potential	able to decrease the clonogenic potential	slightly decreased the number of cells in the G2/M phase with a simultaneous slight increase in the percentage of cells in the G0/G1 phase	significantly slower migration	significantly slower migration
CC(=O)OC1O[C@H](Cn2cc(COc3cccc4cccnc34)nn2)[C@@H](OC(C)=O)[C@H](OC(C)=O)[C@H]1OC(C)=O (stereo partly drawn) [Compound A-1]	–	able to decrease the clonogenic potential	able to decrease the clonogenic potential	slightly decreased the number of cells in the G2/M phase with a simultaneous slight increase in the percentage of cells in the G0/G1 phase	significantly slower migration	significantly slower migration
